Measured values reported in US20230265151A1, “GIP/GLP1 CO-AGONIST COMPOUNDS” (priority 2020, published 2023).
Where two headings read alike, the source gives them in different places.

How the values were obtained:
[1] = target: T1, human GIP receptor (hGIPR) (Homo sapiens, UniProt P48546); assay: [125I]-GIP binding, SPA with membranes of CHO cells expressing hGIPR
T1 construct: expressed in transfected cells; crude membranes
T1 sequence (P48546 22-466): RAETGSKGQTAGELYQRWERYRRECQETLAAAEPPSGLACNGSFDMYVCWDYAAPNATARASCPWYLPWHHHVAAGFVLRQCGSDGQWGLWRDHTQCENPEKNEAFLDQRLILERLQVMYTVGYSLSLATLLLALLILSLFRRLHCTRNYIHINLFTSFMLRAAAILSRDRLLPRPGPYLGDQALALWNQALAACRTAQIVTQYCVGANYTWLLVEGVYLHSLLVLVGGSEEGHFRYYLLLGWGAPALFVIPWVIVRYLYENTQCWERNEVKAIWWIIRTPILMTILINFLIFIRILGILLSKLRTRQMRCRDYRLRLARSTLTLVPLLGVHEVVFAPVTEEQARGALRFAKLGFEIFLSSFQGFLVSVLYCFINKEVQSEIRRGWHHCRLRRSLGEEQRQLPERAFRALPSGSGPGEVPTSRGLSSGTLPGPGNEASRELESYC

hGIPR = target: T2, hGIPR (Homo sapiens, UniProt P48546); assay: Functional cAMP formation (HTRF) in HEK-293 clonal cells expressing hGIPR, 0.1% bovine casein, without or with 1.0% human serum albumin; format: cell-based; details: for EC50: geometric mean
T2 construct: expressed in transfected cells
T2 sequence (P48546 22-466): T1 sequence (P48546 22-466)
How it was run: (§1)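 Readings of the HTRF 665/620 nm ratio, which falls as cAMP rises, were converted to nM cAMP using a standard curve after 30 min peptide exposure at 37° C.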

hGCGR = target: T3, hGCGR (Homo sapiens, UniProt P47871); assay: Functional cAMP formation (HTRF) in HEK-293 clonal cells expressing hGCGR, 0.1% bovine casein, without or with 1.0% human serum albumin; format: cell-based
T3 construct: expressed in transfected cells
How it was run: as §1

hGLP-1R = hGLP-1R (Homo sapiens, UniProt P43220); assay: Functional cAMP formation (HTRF) in HEK-293 clonal cells expressing hGLP-1R, 0.1% bovine casein, without or with 1.0% human serum albumin; format: cell-based; set-up: expressed in transfected cells; details: for EC50: geometric mean
How it was run: as §1

[2] = human GIPR, geometric mean (SEM, n), read-out: Binding Affinity Ki, nM (SEM, n) hGIPR
[3] = 0.1% bovine casein and 1.0% human serum albumin, 37° C., read-out: hGIPR EC50, nM (SEM, n)
[4] = HEK293, 0.1% bovine casein and 1.0% human serum albumin, 37° C., percent of maximal response to GIP(1-42)NH2, read-out: hGIPR Emax, % ± SEM
[5] = HEK293, percent of maximal response to GIP(1-42)NH2, 37° C., 0.1% bovine casein, arithmetic mean, read-out: hGIPR Emax, % ± SEM
[6] = 0.1% bovine casein and 1.0% human serum albumin, 37° C., geometric mean, read-out: hGCGR EC50, nM (SEM, n)
[7] = cAMP, incubated at 37° C., 0.1% bovine casein (no human serum albumin), geometric mean, read-out: hGCGR EC50, nM (SEM, n)
[8] = 0.1% bovine casein and 1.0% human serum albumin, 37° C., read-out: hGLP-1R EC50, nM (SEM, n)

T3 sequence (P47871 26-477): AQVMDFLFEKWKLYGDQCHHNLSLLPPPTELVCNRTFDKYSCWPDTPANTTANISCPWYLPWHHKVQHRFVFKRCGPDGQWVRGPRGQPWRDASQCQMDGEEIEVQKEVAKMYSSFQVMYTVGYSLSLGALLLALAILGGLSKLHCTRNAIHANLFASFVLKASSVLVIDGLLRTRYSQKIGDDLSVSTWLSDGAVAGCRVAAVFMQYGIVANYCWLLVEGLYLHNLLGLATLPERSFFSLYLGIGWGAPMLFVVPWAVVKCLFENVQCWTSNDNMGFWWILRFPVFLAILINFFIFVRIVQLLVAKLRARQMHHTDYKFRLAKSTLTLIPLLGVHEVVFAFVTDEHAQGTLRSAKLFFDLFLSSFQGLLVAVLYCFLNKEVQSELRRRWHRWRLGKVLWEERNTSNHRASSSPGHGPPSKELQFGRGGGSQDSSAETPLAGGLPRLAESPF
Chain of hGLP-1R (P43220 24-463): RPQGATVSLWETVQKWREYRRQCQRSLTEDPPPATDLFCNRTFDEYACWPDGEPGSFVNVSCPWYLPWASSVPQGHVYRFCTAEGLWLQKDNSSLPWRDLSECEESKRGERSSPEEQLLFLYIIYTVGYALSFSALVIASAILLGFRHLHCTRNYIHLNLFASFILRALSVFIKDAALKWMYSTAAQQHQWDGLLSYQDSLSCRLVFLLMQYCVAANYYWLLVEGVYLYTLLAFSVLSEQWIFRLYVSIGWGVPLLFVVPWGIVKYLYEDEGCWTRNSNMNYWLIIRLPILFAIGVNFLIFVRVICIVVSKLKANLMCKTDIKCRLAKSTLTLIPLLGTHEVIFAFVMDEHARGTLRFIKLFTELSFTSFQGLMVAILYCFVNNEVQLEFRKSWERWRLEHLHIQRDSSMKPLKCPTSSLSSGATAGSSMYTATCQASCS

CCCC[C@H](NC(=O)[C@H](CC(=O)O)NC(=O)[C@H](CO)NC(=O)[C@@H](NC(=O)[C@](C)(Cc1ccccc1F)NC(=O)[C@@H](NC(=O)CNC(=O)[C@H](CCC(=O)O)NC(=O)C(C)(C)NC(=O)[C@@H](N)Cc1ccc(O)cc1)[C@@H](C)O)[C@@H](C)O)C(=O)N[C@@H](CO)C(=O)N[C@H](C(=O)N[C@@](C)(CC(C)C)C(=O)N[C@@H](CC(C)C)C(=O)N[C@@H](CC(=O)O)C(=O)N[C@@H](CCCN)C(=O)N[C@@H](CCCCNC(=O)COCCOCCNC(=O)COCCOCCNC(=O)CC[C@H](NC(=O)CCCCCCCCCCCCC(=O)O)C(=O)O)C(=O)N[C@@H](C)C(=O)N[C@@H](CCC(N)=O)C(=O)NC(C)(C)C(=O)N[C@@H](CCC(=O)O)C(=O)N[C@@H](Cc1ccccc1)C(=O)N[C@H](C(=O)N[C@H](CCC(=O)O)C(=O)N[C@@](C)(Cc1ccc(O)cc1)C(=O)N[C@@H](CC(C)C)C(=O)N[C@H](C(=O)N[C@@H](CCC(=O)O)C(=O)NCC(=O)NCC(=O)N[C@@H](CCCCNC(=O)COCCOCCNC(=O)COCCOCCNC(=O)CC[C@H](NC(=O)CCCCCCCCCCCCC(=O)O)C(=O)O)C(=O)N[C@@H](CO)C(=O)N[C@@H](CO)C(=O)NCC(=O)N[C@@H](C)C(=O)N1CCC[C@H]1C(=O)N1CCC[C@H]1C(=O)N1CCC[C@H]1C(=O)N[C@@H](CO)C(N)=O)[C@@H](C)CC)[C@@H](C)CC)[C@@H](C)CC [Example 60]
Ki [1, 2]: 0.11 nM
EC50 (hGIPR; [3]): 1.2 nM
Emax (hGIPR; [4]): 89.4 ± 4.57%
Emax (hGIPR; [5]): 94 ± 6.07%
EC50 (hGCGR; [6]): > 9950 nM
EC50 (hGCGR; [7]): > 9950 nM
Emax (hGLP-1R; HEK293, 0.1% bovine casein and 1.0% human serum albumin, 37° C., percent of maximal response to GLP-1(7-36)NH2, read-out: hGLP-1R Emax, % ± SEM): 111 ± 3.97%
Emax (hGLP-1R; HEK293, percent of maximal response to GLP-1(7-36)NH2, 37° C., 0.1% bovine casein, arithmetic mean, read-out: hGLP-1R Emax, % ± SEM): 97.2 ± 4.28%
EC50 (hGLP-1R; cAMP, incubated at 37° C., 0.1% bovine casein (no human serum albumin), read-out: hGLP-1R EC50, nM (SEM, n)): 0.19 nM

CC[C@H](C)[C@H](NC(=O)[C@H](CC(C)C)NC(=O)[C@](C)(Cc1ccc(O)cc1)NC(=O)[C@@H](CCC(=O)O)NC(=O)[C@@H](NC(=O)[C@H](Cc1ccccc1)NC(=O)[C@H](CCC(=O)O)NC(=O)C(C)(C)NC(=O)[C@H](CCC(N)=O)NC(=O)[C@H](C)NC(=O)[C@H](CCCCNC(=O)[C@@H](N)CCCCNC(=O)COCCOCCNC(=O)CC[C@H](NC(=O)CCCCCCCCCCCCC(=O)O)C(=O)O)NC(=O)[C@H](CCCN)NC(=O)[C@H](CC(=O)O)NC(=O)[C@H](CC(C)C)NC(=O)[C@](C)(CC(C)C)NC(=O)[C@@H](NC(=O)[C@H](CO)NC(=O)[C@H](Cc1ccncc1)NC(=O)[C@H](CC(=O)O)NC(=O)[C@H](CO)NC(=O)[C@@H](NC(=O)[C@](C)(Cc1ccccc1F)NC(=O)[C@@H](NC(=O)CNC(=O)[C@H](CCC(=O)O)NC(=O)C(C)(C)NC(=O)[C@@H](N)Cc1ccc(O)cc1)[C@@H](C)O)[C@@H](C)O)[C@@H](C)CC)[C@@H](C)CC)C(=O)N[C@@H](CCC(=O)O)C(=O)NCC(=O)NCC(=O)N[C@@H](CCCCNC(=O)[C@@H](N)CCCCNC(=O)COCCOCCNC(=O)CC[C@H](NC(=O)CCCCCCCCCCCCC(=O)O)C(=O)O)C(=O)N[C@@H](CO)C(=O)N[C@@H](CO)C(=O)NCC(=O)N[C@@H](C)C(=O)N1CCC[C@H]1C(=O)N1CCC[C@H]1C(=O)N1CCC[C@H]1C(=O)N[C@@H](CO)C(N)=O [Example 36]
Ki [1, 2]: 0.103 nM
EC50 (hGIPR; [3]): 0.408 nM
Emax (hGIPR; [4]): 91.4 ± 0.667%
Emax (hGIPR; [5]): 95.4 ± 2.02%
EC50 (hGIPR; cAMP, incubated at 37° C., 0.1% bovine casein (no human serum albumin), read-out: hGIPR EC50, nM (SEM, n)): 0.0185 nM
EC50 (hGCGR; [6]): > 9950 nM
EC50 (hGCGR; [7]): > 9950 nM
EC50 (hGLP-1R; [8]): 10.9 nM

CC[C@H](C)[C@H](NC(=O)[C@H](CC(C)C)NC(=O)[C@](C)(Cc1ccc(O)cc1)NC(=O)[C@H](CCCCNC(=O)COCCOCCNC(=O)COCCOCCNC(=O)CC[C@H](NC(=O)CCCCCCCCCOc1ccc(C(=O)O)cc1)C(=O)O)NC(=O)[C@@H](NC(=O)[C@H](Cc1ccccc1)NC(=O)[C@H](CCCN)NC(=O)C(C)(C)NC(=O)[C@H](CCC(N)=O)NC(=O)[C@H](C)NC(=O)[C@H](CCC(N)=O)NC(=O)[C@H](CCCN)NC(=O)[C@H](CC(=O)O)NC(=O)[C@H](CC(C)C)NC(=O)[C@](C)(CC(C)C)NC(=O)[C@@H](NC(=O)C(C)(C)NC(=O)[C@H](Cc1ccc(O)cc1)NC(=O)[C@H](CC(=O)O)NC(=O)[C@H](CO)NC(=O)[C@@H](NC(=O)[C@](C)(Cc1ccccc1F)NC(=O)[C@@H](NC(=O)CNC(=O)[C@H](CCC(=O)O)NC(=O)C(C)(C)NC(=O)[C@@H](N)Cc1ccc(O)cc1)[C@@H](C)O)[C@@H](C)O)[C@@H](C)CC)[C@@H](C)CC)C(=O)N[C@@H](CCCCNC(=O)COCCOCCNC(=O)COCCOCCNC(=O)CC[C@H](NC(=O)CCCCCCCCCOc1ccc(C(=O)O)cc1)C(=O)O)C(=O)NCC(=O)NCC(=O)N1CCC[C@H]1C(=O)N[C@@H](CO)C(=O)N[C@@H](CO)C(=O)NCC(=O)N[C@@H](C)C(=O)N1CCC[C@H]1C(=O)N1CCC[C@H]1C(=O)N1CCC[C@H]1C(=O)N[C@@H](CO)C(N)=O [Example 492]
Ki [1]: 0.0264 nM
Emax (hGIPR; HEK293, read-out: hGIPR Emax, % ± SEM, cAMP, 37° C., 0.1% bovine casein and 1.0% human serum albumin, percent of maximal response to GIP(1-42)NH2): 88.7%
EC50 (hGIPR; hGIPR EC50, nM (SEM, n), cAMP, 37° C., 0.1% bovine casein (no human serum albumin)): 0.0125 nM
EC50 (hGCGR; hGCGR EC50, nM (SEM, n), cAMP, 37° C., 0.1% bovine casein (no human serum albumin), geometric mean): > 9950 nM
EC50 (hGCGR; hGCGR EC50, nM (SEM, n), cAMP, 37° C., 0.1% bovine casein and 1.0% human serum albumin, geometric mean (SEM, n)): > 9950 nM
Emax (hGLP-1R; HEK293, read-out: hGLP-1R Emax, % ± SEM, cAMP, 37° C., 0.1% bovine casein, percent of maximal response to GLP-1(7-36)NH2, arithmetic mean): 117%
EC50 (hGLP-1R; hGLP-1R EC50, nM (SEM, n), cAMP, 37° C., 0.1% bovine casein (no human serum albumin)): 0.143 nM

CCCCCCCCCCCCCC(=O)N[C@@H](CCC(=O)NCCOCCOCC(=O)NCCOCCOCC(=O)NCCCC[C@H](NC(=O)CNC(=O)CNC(=O)[C@H](CCC(=O)O)NC(=O)[C@@H](NC(=O)[C@H](CC(C)C)NC(=O)[C@](C)(Cc1ccc(O)cc1)NC(=O)[C@@H](CCC(=O)O)NC(=O)[C@@H](NC(=O)[C@H](Cc1ccccc1)NC(=O)[C@H](CCC(=O)O)NC(=O)C(C)(C)NC(=O)[C@H](CCC(N)=O)NC(=O)[C@H](C)NC(=O)[C@H](CCCCNC(=O)COCCOCCNC(=O)COCCOCCNC(=O)CC[C@H](NC(=O)CCCCCCCCCCCCC)C(=O)O)NC(=O)[C@H](CCCN)NC(=O)[C@H](CC(=O)O)NC(=O)[C@H](CC(C)C)NC(=O)[C@](C)(CC(C)C)NC(=O)[C@@H](NC(=O)[C@H](CO)NC(=O)[C@H](Cc1ccncc1)NC(=O)[C@H](CC(=O)O)NC(=O)[C@H](CO)NC(=O)[C@@H](NC(=O)[C@](C)(Cc1ccccc1F)NC(=O)[C@@H](NC(=O)CNC(=O)[C@H](CCC(=O)O)NC(=O)C(C)(C)NC(=O)[C@@H](N)Cc1ccc(O)cc1)[C@@H](C)O)[C@@H](C)O)[C@@H](C)CC)[C@@H](C)CC)[C@@H](C)CC)C(=O)N[C@@H](CO)C(=O)N[C@@H](CO)C(=O)NCC(=O)N[C@@H](C)C(=O)N1CCC[C@H]1C(=O)N1CCC[C@H]1C(=O)N1CCC[C@H]1C(=O)N[C@@H](CO)C(N)=O)C(=O)O [Example 8]
Ki [1, 2]: 0.024 nM
EC50 (hGIPR; [3]): 0.635 nM
Emax (hGIPR; [4]): 91.3 ± 3.11%
EC50 (hGCGR; [6]): > 9950 nM
EC50 (hGCGR; [7]): > 9950 nM
EC50 (hGLP-1R; [8]): 8 nM
